Reference: US7879876B2, “Sulfonamide derivatives and use thereof for the modulation of metalloproteinases” (Merck Serono SA, priority 2005, dated 2011)

Assays:
MMP13 = MMP13 (Homo sapiens, UniProt P45452); assay: MMP13 inhibition (Table 1); type: biochemical; settings: read-out: percentage inhibition MMP13
[1] = test system: IL-2-induced peritoneal recruitment of lymphocytes; assay: IL-2-induced peritoneal recruitment of lymphocytes; type: in vivo, C3H/HEN mice; settings: Mus musculus, Lymphocyte, po; 3 mg/kg p.o., 15 min prior to IL-2; mice; 24 h after IL-2
Protocol: Administration of IL-2 intraperitoneally causes migration of lymphocytes into the intraperitoneal cavity. This is a model for the cellular migration that occurs during inflammation.
C3H/HEN mice (Elevage Janvier, France) were intraperitoneally injected with IL-2 (Serono Pharmaceutical Research Institute, 20 μg/kg, in saline). Compounds of the invention were suspended in 0.5% carboxymethylcellulose (CMC)/0.25% tween-20 and were administered by s.c. or p.o. route (10 ml/kg) 15 min prior to administration of IL-2.
Twenty-four hours after administration of IL-2, peritoneal white blood cells were collected by 3 successive lavages of the peritoneal cavity with 5 ml phosphate buffered saline (PBS)-1 mM EDTA (+4° C.). The suspension was centrifuged (1700 g×10 min at +4° C.). The resulting pellet was suspended in 1 ml PBS-1 mM EDTA.
Lymphocytes were identified and counted using a Beckman/Coulter counter.
The animals were divided into 6 groups (6 mice each group):
Group 1: (baseline) received 0.5% CMC/0.25% tween-20 (vehicle of compound of the invention) and saline (vehicle of IL-2);
Group 2: (control IL-2) received 0.5% CMC/0.25% tween-20 and injection of IL-2;
Group 3: Experimental group (Compound of the invention Dose 1) received a compound of the invention and injection of IL-2;
Group 4: Experimental group (Compound of the invention Dose 2) received a compound of the invention and injection of IL-2;
Group 5: Experimental group (Compound of the invention Dose 3) received a compound of the invention and injection of IL-2;
Group 6: Reference group received reference compound dexamethasone and injection of IL-2.
Inhibition of lymphocyte recruitment was calculated as follows:
Where Ly 1=Number of lymphocytes in group 1 (E3/μl), Ly 2=Number of lymphocytes in group 2 (E3/μl), Ly X=Number of lymphocytes in group X (3-5) (E3/μl).

| SMILES | inhibition at 0.1 µM (MMP13) [%] | inhibition at 5 µM (MMP13) [%] | inhibition in vivo at 3 mg/kg [1] [%] |
| --- | --- | --- | --- |
| O=CN(O)C(CCc1ccccc1)CS(=O)(=O)N1CCc2ccccc2C1 (centres unmarked) [Example 1, N-{1-[(3,4-dihydroisoquinolin-2(1H)-ylsulfonyl)methyl]-3-phenylpropyl}-N-hydroxyformamide] | 15 | 97 |  |
| CC1(C)OC[C@H](C(CS(=O)(=O)N2CCc3ccccc3C2)N(O)C=O)O1 (stereo partly drawn) [Example 2, N-{2-(3,4-dihydroisoquinolin-2(1H)-ylsulfonyl)-1-[(4S)-2,2-dimethyl-1,3-dioxolan-4-yl]ethyl}-N-hydroxyformamide] | 17 | 98 | 16 ± 13 |
| CCCCCC(CS(=O)(=O)N1CCc2ccccc2C1)N(O)C=O (centres unmarked) [Example 3, N-{1-[(3,4-dihydroisoquinolin-2(1H)-ylsulfonyl)methyl]hexyl}-N-hydroxyformamide] | 6 | 98 |  |
| O=CN(O)C(CS(=O)(=O)N1CCc2ccccc2C1)C1CC1 (centres unmarked) [Example 4, N-[1-cyclopropyl-2-(3,4-dihydroisoquinolin-2(1H)-ylsulfonyl)ethyl]-N-hydroxyformamide] | 0 | 80 |  |
| O=CN(O)C(CS(=O)(=O)N1CCc2ccccc2C1)c1cccnc1 (centres unmarked) [Example 10, N-[2-(3,4-dihydroisoquinolin-2(1H)-ylsulfonyl)-1-pyridin-3-ylethyl]-N-hydroxyformamide] |  | 93 |  |
| COc1cc2c(cc1OC)CN(S(=O)(=O)CC(CCc1ccccc1)N(O)C=O)CC2 (centres unmarked) [Example 12, N-(1-{[(6,7-dimethoxy-3,4-dihydroisoquinolin-2(1H)-yl)sulfonyl]methyl}-3-phenylpropyl)-N-hydroxyformamide] |  | 48 |  |
| COc1ccc(C(CS(=O)(=O)N2CCc3ccccc3C2)N(O)C=O)cn1 (centres unmarked) [Example 13, N-[2-(3,4-dihydroisoquinolin-2(1H)-ylsulfonyl)-1-(6-methoxypyridin-3-yl)ethyl]-N-hydroxyformamide] | 28 | 96 |  |
| CC1(C)OC[C@H](C(CS(=O)(=O)N2Cc3ccccc3C2)N(O)C=O)O1 (stereo partly drawn) [Example 16, N-{2-(1,3-dihydro-2H-isoindol-2-ylsulfonyl)-1-[(4S)-2,2-dimethyl-1,3-dioxolan-4-yl]ethyl}-N-hydroxyformamide] |  |  | 44 ± 7 |
| CC(C)c1ccc2c(c1)CCN(S(=O)(=O)CC([C@H]1COC(C)(C)O1)N(O)C=O)C2 (stereo partly drawn) [Example 18, N-{1-[(4S)-2,2-dimethyl-1,3-dioxolan-4-yl]-2-[(6-isopropyl-3,4-dihydroisoquinolin-2(1H)-yl)sulfonyl]ethyl}-N-hydroxyformamide] |  |  | 39 ± 7 |
| CC1(C)OC[C@H](C(CS(=O)(=O)N2CCc3ccc(Cl)cc3C2)N(O)C=O)O1 (stereo partly drawn) [Example 19, N-{2-[(7-chloro-3,4-dihydroisoquinolin-2(1H)-yl)sulfonyl]-1-[(4S)-2,2-dimethyl-1,3-dioxolan-4-yl]ethyl}-N-hydroxyformamide] |  |  | 62 ± 9 |
| O=CN(O)C(CS(=O)(=O)N1CCc2ccc(Cl)cc2C1)C1CCCC1 (centres unmarked) [Example 21, N-{2-[(7-chloro-3,4-dihydroisoquinolin-2(1H)-yl)sulfonyl]-1-cyclopentylethyl}-N-hydroxyformamide] |  |  | 43 ± 9 |
| O=CN(O)C(CS(=O)(=O)N1CCc2cc(C(F)(F)F)ccc2C1)C1CCCC1 (centres unmarked) [Example 25, N-(1-cyclopentyl-2-{[6-(trifluoromethyl)-3,4-dihydro-isoquinolin-2(1H)-yl]sulfonyl}ethyl)-N-hydroxyformamide] |  |  | 37 ± 7 |
| O=CN(O)[C@H](CS(=O)(=O)N1CCc2ccc(C(F)(F)F)cc2C1)[C@H]1CCCO1 [Example 27, N-hydroxy-N-((1S)-1-[(2R)-tetrahydrofuran-2-yl]-2-{[7-(trifluoromethyl)-3,4-dihydroisoquinolin-2(1H)-yl]sulfonyl}ethyl)formamide] |  |  | 46 ± 9 |
| CC1(C)OC[C@H](C(CS(=O)(=O)N2CCc3ccc(C(F)(F)F)cc3C2)N(O)C=O)O1 (stereo partly drawn) [Example 28, N-(1-[(4S)-2,2-dimethyl-1,3-dioxolan-4-yl]-2-{[7-(trifluoro-methyl)-3,4-dihydroisoquinolin-2(1H)-yl]sulfonyl}ethyl)-N-hydroxyformamide] |  |  | 62 ± 5 |
| O=CN(O)[C@H](CS(=O)(=O)N1Cc2ccc(F)cc2C1)[C@H]1CCCO1 [Example 29, N-{(1S)-2-[(5-fluoro-1,3-dihydro-2H-isoindol-2-yl)-sulfonyl]-1-[(2R)-tetrahydrofuran-2-yl]ethyl}-N-hydroxyformamide] |  |  | 29 ± 11 |
| CC(C)(Cc1ccccc1)C(CS(=O)(=O)N1CCc2cc(C(F)(F)F)ccc2C1)N(O)C=O (centres unmarked) [Example 31, N-[2,2-dimethyl-3-phenyl-1-({[6-(trifluoromethyl)-3,4-dihydroisoquinolin-2(1H)-yl]sulfonyl}methyl)propyl]-N-hydroxyformamide] |  |  | 31 ± 10 |
| CCC(CC)C(CS(=O)(=O)N1CCc2cc(C(C)C)ccc2C1)N(O)C=O (centres unmarked) [Example 35, N-(2-ethyl-1-{[(6-isopropyl-3,4-dihydroisoquinolin-2(1H)-yl)sulfonyl]methyl}butyl)-N-hydroxyformamide] |  |  | 50 ± 8 |
| CC(C)(C)CC(CS(=O)(=O)N1CCc2cc(Cl)c(Cl)cc2C1)N(O)C=O (centres unmarked) [Example 42, N-(1-{[(6,7-dichloro-3,4-dihydroisoquinolin-2(1H)-yl)-sulfonyl]methyl}-3,3-dimethylbutyl)-N-hydroxyformamide] |  |  | 40 ± 10 |
| O=CN(O)C(CO)CS(=O)(=O)N1CCc2cc(Cl)c(Cl)cc2C1 (centres unmarked) [Example 49, N-[2-[(6,7-dichloro-3,4-dihydroisoquinolin-2(1H)-yl)-sulfonyl]-1-(hydroxymethyl)ethyl]-N-hydroxyformamide] |  |  | 16 ± 12 |
| CC(C)C(CS(=O)(=O)N1CCc2ccc(-c3ccc(F)cc3)cc2C1)N(O)C=O (centres unmarked) [Example 50, N-[1-({[7-(4-fluorophenyl)-3,4-dihydroisoquinolin-2(1H)-yl]sulfonyl}methyl)-2-methylpropyl]-N-hydroxyformamide] |  |  | 32 ± 4 |
| CC(C)(CS(=O)(=O)N1CCc2ccc(Br)cc2C1)N(O)C=O [Example 56, N-{2-[(7-bromo-3,4-dihydroisoquinolin-2(1H)-yl)sulfonyl]-1,1-dimethylethyl}-N-hydroxyformamide] |  |  | 37 ± 8 |
| O=CN(O)C(COCc1ccccc1)CS(=O)(=O)N1CCc2ccc(C(F)(F)F)cc2C1 (centres unmarked) [Example 59, N-[2-(benzyloxy)-1-({[7-(trifluoromethyl)-3,4-dihydro-isoquinolin-2(1H)-yl]sulfonyl}methyl)ethyl]-N-hydroxyformamide] |  |  | 55 ± 9 |
| O=CN(O)C(COc1ccccc1)CS(=O)(=O)N1CCc2ccc(Cl)cc2C1 (centres unmarked) [Example 61, N-[2-[(7-chloro-3,4-dihydroisoquinolin-2(1H)-yl)sulfonyl]-1-(phenoxymethyl)ethyl]-N-hydroxyformamide] |  |  | 45 ± 9 |
| O=CN(O)C1(CS(=O)(=O)N2CCc3ccc(Cl)cc3C2)CCCC1 [Example 62, N-(1-{[(7-chloro-3,4-dihydroisoquinolin-2(1H)-yl)-sulfonyl]methyl}cyclopentyl)-N-hydroxyformamide] |  |  | 20 ± 9 |
| O=CN(O)C(CS(=O)(=O)N1CCc2ccc(-c3ccsc3)cc2C1)C1CCCC1 (centres unmarked) [Example 68, N-(1-cyclopentyl-2-{[7-(3-thienyl)-3,4-dihydroisoquinolin-2(1H)-yl]sulfonyl}ethyl)-N-hydroxyformamide] |  |  | 33 ± 7 |
| O=CN(O)C(CS(=O)(=O)N1Cc2ccccc2C1)C1CC1 (centres unmarked) [Example 72, N-[1-cyclopropyl-2-(1,3-dihydro-2H-isoindol-2-ylsulfonyl)-ethyl]-N-hydroxyformamide] |  |  | 41 ± 7 |
| O=CN(O)C(CS(=O)(=O)N1CCc2ccc(-c3ccc(F)cc3)cc2C1)C1CC1 (centres unmarked) [Example 75, N-(1-cyclopropyl-2-{[7-(4-fluorophenyl)-3,4-dihydro-isoquinolin-2(1H)-yl]sulfonyl}ethyl)-N-hydroxyformamide] |  |  | 26 ± 11 |
| O=CN(O)C(CCC(F)(F)F)CS(=O)(=O)N1CCc2ccc(Cl)cc2C1 (centres unmarked) [Example 76, N-(1-{[(7-chloro-3,4-dihydroisoquinolin-2(1H)-yl)-sulfonyl]methyl}-4,4,4-trifluorobutyl)-N-hydroxyformamide] |  |  | 45 ± 11 |
| O=CN(O)C(CS(=O)(=O)N1CCc2ccc(-c3ccncc3)cc2C1)C1CCCC1 (centres unmarked) [Example 79, N-{1-cyclopentyl-2-[(7-pyridin-4-yl-3,4-dihydroisoquinolin-2(1H)-yl)sulfonyl]ethyl}-N-hydroxyformamide] |  |  | 43 ± 10 |
